This is an account of results in US20240327408A1, “COMPOUNDS CONTAINING TETRAHYDRONAPHTHYRIDINONE OR TETRAHYDROPYRIDOPYRIMIDINONE SKELETON, PREPARATION METHOD THEREFOR AND PHARMACEUTICAL USE THEREOF” (CHINA PHARMACEUTICAL UNIVERSITY, priority 2021, published 2024).

In one experiment the target is T1, hClpP (Homo sapiens, UniProt Q16740).
T1 construct: made in house
Briefly: activating ClpP hydrolysis of FITC-casein (fluorescence kinetic detection). The class given is biochemical. As to conditions: hClpP 1 μM, FITC-Casein 4 μM, 37° C. How it is done:
The specific procedures were as follows:
Test compounds were each prepared into a 100 mM stock solution in DMSO and stored. and 1 μL of stock solution of each of the compounds was taken and diluted to 10 mM by adding 9 μL of DMSO for later use.
The compounds of formula I of the present invention were each diluted at concentrations of 200 μM, 50 μM, 10 μM, 2 μM, 500 nM, 100 nM, 20 nM, and 2 nM in an assay buffer. 50 μL of each of the compounds at different concentrations was added to each well, with 2 replicate wells.
The protein was diluted to 4 μM in an assay buffer. 25 μL of protein was added to each well, and incubated at 37° C. for 30 min. The final concentration was 1 μM.
25 μL of FITC-Casein was added to each well. The final concentration was 4 μM. The mixture was immediately loaded on the machine for detection.
FITC-Casein and FITC-Casein+ClpP were used as negative controls.
The detection temperature was 37° C. The plate was shaken for 3 s. […] Kinetic parameters were set, and scanning was performed once every 1 min for 15 min.

The subject of a further experiment is MV4; 11 cells. In words: inhibiting the growth of MV4; 11 cells. The class given is cell-based.

SMILES strings stand for the structures. Where two headings read alike, the source gives them in different places.

T1 sequence (Q16740 57-277): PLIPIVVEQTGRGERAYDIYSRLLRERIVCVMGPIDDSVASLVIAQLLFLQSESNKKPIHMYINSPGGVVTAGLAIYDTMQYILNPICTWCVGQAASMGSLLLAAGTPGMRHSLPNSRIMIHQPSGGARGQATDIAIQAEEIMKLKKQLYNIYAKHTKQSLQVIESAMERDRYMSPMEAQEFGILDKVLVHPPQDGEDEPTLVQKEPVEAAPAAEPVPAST

On to `Cc1cc(Cn2c(=O)c3c(c4cccnc42)CCN(Cc2ccccc2)C3)n(C)n1` [Compound I-60, 3-benzyl-6-((1,3-dimethyl-1H-pyrazol-5-yl)methyl)-2,3,4,6-tetrahydropyrido[3,4-c][1,8]naphthyridine-5-(1H)-one], for which the EC50 (commonly the concentration that produces a half-maximal response) on hClpP was in the range of 10 to 100 µM. The IC50 (as a rule, the concentration that inhibits the measured activity by half) in the experiment with MV4; 11 cells (Homo sapiens) was in the range of 1 to 10 µM.

On to `O=c1c2c(c3cccnc3n1Cc1ccccn1)CCN(Cc1ccccc1)C2` [Compound I-61, 3-benzyl-6-(pyridin-2-ylmethyl)-2,3,4,6-tetrahydropyrido[3,4-c][1,8]naphthyridine-5-(1H)-one], for which the EC50 on hClpP lay in the range of 10 to 100 µM. Moreover, the IC50 in the experiment with MV4; 11 cells (Homo sapiens) was in the range of 1 to 10 µM.

Compound `O=c1c2c(c3cccnc3n1Cc1cccnc1)CCN(Cc1ccccc1)C2` [Compound I-62, 3-benzyl-6-(pyridin-3-ylmethyl)-2,3,4,6-tetrahydropyrido[3,4-c][1,8]naphthyridine-5-(1H)-one] displayed a concentration for a half-maximal effect (EC50) on hClpP of 10 to 100 µM. Further, in the experiment with MV4; 11 cells (Homo sapiens), the IC50 was 1 to 10 µM.

Compound `O=c1c2c(c3cccnc3n1Cc1ccncc1)CCN(Cc1ccccc1)C2` [Compound I-63, 3-benzyl-6-(pyridin-4-ylmethyl)-2,3,4,6-tetrahydropyrido[3,4-c][1,8]naphthyridine-5-(1H)-one] showed a concentration for a half-maximal effect (EC50) on hClpP of 10 to 100 µM. Moreover, the IC50 in the experiment on MV4; 11 cells (Homo sapiens) was 1 to 10 µM.

The compound `O=c1c2c(c3cccnc3n1Cc1cc(Cl)ccn1)CCN(Cc1ccccc1)C2` [Compound I-64, 3-benzyl-6-((4-chloropyridin-2-yl)methyl)-2,3,4,6-tetrahydropyrido[3,4-c][1,8]naphthyridine-5-(1H)-one] had a concentration giving a half-maximal response (EC50) on hClpP of 10 to 100 µM. In the experiment on MV4; 11 cells, this compound returned an IC50 of 1 to 10 µM.

Consider `Cn1ccnc1Cn1c(=O)c2c(c3cccnc31)CCN(Cc1ccccc1)C2` [Compound I-65, 3-benzyl-6-((1-methyl-1H-imidazol-2-yl)methyl)-2,3,4,6-tetrahydropyrido[3,4-c][1,8]naphthyridine-5-(1H)-one], for which the EC50 at hClpP lay within 10 to 100 µM. Besides, the IC50 with MV4; 11 cells (Homo sapiens) is 1 to 10 µM.

`Cn1cnc(Cn2c(=O)c3c(c4cccnc42)CCN(Cc2ccccc2)C3)c1` [Compound I-66, 3-benzyl-6-((1-methyl-1H-imidazol-4-yl)methyl)-2,3,4,6-tetrahydropyrido[3,4-c][1,8]naphthyridine-5-(1H)-one] showed an EC50 on hClpP of 10 to 100 µM. In the experiment on MV4; 11 cells (Homo sapiens), this compound showed an IC50 of 1 to 10 µM.

In the case of `Cn1cncc1Cn1c(=O)c2c(c3cccnc31)CCN(Cc1ccccc1)C2` [Compound I-67, 3-benzyl-6-((1-methyl-1H-imidazol-5-yl)methyl)-2,3,4,6-tetrahydropyrido[3,4-c][1,8]naphthyridine-5-(1H)-one], at hClpP, the half-maximal effective concentration (EC50) is 10 to 100 µM. Also, in the experiment on MV4; 11 cells (Homo sapiens), the IC50 is 1 to 10 µM.

Compound `Cc1noc(C)c1Cn1c(=O)c2c(c3cccnc31)CCN(Cc1ccccc1)C2` [Compound I-68, 3-benzyl-6-((3,5-dimethylisoxazol-4-yl)methyl)-2,3,4,6-tetrahydropyrido[3,4-c][1,8]naphthyridine-5-(1H)-one] yielded an EC50 at hClpP of 10 to 100 µM. Further, in the experiment with MV4; 11 cells (Homo sapiens), the IC50 lay within 1 to 10 µM.

At hClpP, `Cc1ncc(Cn2c(=O)c3c(c4cccnc42)CCN(Cc2ccccc2)C3)s1` [Compound I-69, 3-benzyl-6-((2-methylthiazol-5-yl)methyl)-2,3,4,6-tetrahydropyrido[3,4-c][1,8]naphthyridine-5-(1H)-one] displayed an EC50 of 10 to 100 µM. In the experiment with MV4; 11 cells (Homo sapiens), this compound returned a half-maximal inhibitory concentration (IC50) of 1 to 10 µM.

In the case of `O=c1c2c(c3cccnc3n1Cc1ccc(C(F)(F)F)cc1)CCN(Cc1ccccc1)C2` [Compound I-70, 3-benzyl-6-(4-(trifluoromethyl)benzyl)-2,3,4,6-tetrahydropyrido[3,4-c][1,8]naphthyridine-5-(1H)-one], on hClpP, the EC50 is < 1 µM. Besides, in the experiment on MV4; 11 cells (Homo sapiens), the IC50 is < 1 µM.

Regarding `O=c1c2c(c3cccnc3n1Cc1ccc(F)cc1)CCN(Cc1cccc(F)c1)C2` [Compound I-71, 3-(3-fluorobenzyl)-6-(4-fluorobenzyl)-2,3,4,6-tetrahydropyrido[3,4-c][1,8]naphthyridine-5-(1H)-one], on hClpP, the EC50 is < 1 µM. In the experiment with MV4; 11 cells (Homo sapiens), the IC50 was < 1 µM.

`O=c1c2c(c3cccnc3n1Cc1ccc(F)cc1)CCN(Cc1cccc(Cl)c1)C2` [Compound I-72, 3-(3-chlorobenzyl)-6-(4-fluorobenzyl)-2,3,4,6-tetrahydropyrido[3,4-c][1,8]naphthyridine-5-(1H)-one]: the concentration giving a half-maximal response (EC50) at hClpP was < 1 µM. The IC50 with MV4; 11 cells (Homo sapiens) is < 1 µM.

For the compound `O=c1c2c(c3cccnc3n1Cc1ccc(F)cc1)CCN(Cc1cccc(Br)c1)C2` [Compound I-73, 3-(3-bromobenzyl)-6-(4-fluorobenzyl)-2,3,4,6-tetrahydropyrido[3,4-c][1,8]naphthyridine-5-(1H)-one], the EC50 on hClpP is < 1 µM. For the same compound, the IC50 in the experiment with MV4; 11 cells (Homo sapiens) was < 1 µM.

Turning to `O=c1c2c(c3cccnc3n1Cc1ccc(Cl)cc1)CCN(Cc1cccc(F)c1)C2` [Compound I-74, 3-(3-fluorobenzyl)-6-(4-chlorobenzyl)-2,3,4,6-tetrahydropyrido[3,4-c][1,8]naphthyridine-5-(1H)-one], the EC50 at hClpP is < 1 µM. The IC50 in the experiment on MV4; 11 cells (Homo sapiens) is < 1 µM.

In the case of `O=c1c2c(c3cccnc3n1Cc1ccc(Cl)cc1)CCN(Cc1cccc(Cl)c1)C2` [Compound I-75, 3-(3-chlorobenzyl)-6-(4-chlorobenzyl)-2,3,4,6-tetrahydropyrido[3,4-c][1,8]naphthyridine-5-(1H)-one], at hClpP, the EC50 was < 1 µM. For the same compound, in the experiment with MV4; 11 cells (Homo sapiens), the IC50 is < 1 µM.

With `O=c1c2c(c3cccnc3n1Cc1ccc(Cl)cc1)CCN(Cc1cccc(Br)c1)C2` [Compound I-76, 3-(3-bromobenzyl)-6-(4-chlorobenzyl)-2,3,4,6-tetrahydropyrido[3,4-c][1,8]naphthyridine-5-(1H)-one], on hClpP, the EC50 was < 1 µM. Besides, the concentration for half-maximal inhibition (IC50) in the experiment with MV4; 11 cells (Homo sapiens) is < 1 µM.

For `O=c1c2c(c3cccnc3n1Cc1ccc(Br)cc1)CCN(Cc1cccc(F)c1)C2` [Compound I-77, 3-(3-fluorobenzyl)-6-(4-bromobenzyl)-2,3,4,6-tetrahydropyrido[3,4-c][1,8]naphthyridine-5-(1H)-one], the half-maximal effective concentration (EC50) on hClpP was < 1 µM. Further, the IC50 in the experiment with MV4; 11 cells (Homo sapiens) was < 1 µM.

As for `O=c1c2c(c3cccnc3n1Cc1ccc(Br)cc1)CCN(Cc1cccc(Cl)c1)C2` [Compound I-78, 3-(3-chlorobenzyl)-6-(4-bromobenzyl)-2,3,4,6-tetrahydropyrido[3,4-c][1,8]naphthyridine-5-(1H)-one], the EC50 on hClpP is < 1 µM. Besides, the IC50 with MV4; 11 cells (Homo sapiens) was < 1 µM.

On to `O=c1c2c(c3cccnc3n1Cc1ccc(Br)cc1)CCN(Cc1cccc(Br)c1)C2` [Compound I-79, 3-(3-bromobenzyl)-6-(4-bromobenzyl)-2,3,4,6-tetrahydropyrido[3,4-c][1,8]naphthyridine-5-(1H)-one], for which, at hClpP, the EC50 is < 1 µM. Besides, in the experiment on MV4; 11 cells (Homo sapiens), the concentration for half-maximal inhibition (IC50) was < 1 µM.

Consider `O=c1c2c(c3ccccc3n1Cc1ccc(C(F)(F)F)cc1)CCN(Cc1ccccc1)C2` [Compound I-80, 3-benzyl-6-(4-(trifluoromethyl)benzyl)-2,3,4,6-tetrahydrobenzo[c][2,7]naphthyridine-5-(1H)-one], for which the EC50 at hClpP was < 1 µM. Moreover, in the experiment on MV4; 11 cells (Homo sapiens), the IC50 is < 1 µM.

Consider `O=c1c2c(c3cncnc3n1Cc1ccc(C(F)(F)F)cc1)CCN(Cc1ccccc1)C2` [Compound I-81, 8-benzyl-5-(4-(trifluoromethyl)benzyl)-7,8,9,10-tetrahydropyrimidinyl[4,5-c][2,7]naphthyridine-6-(5H)-one], for which the EC50 on hClpP was < 1 µM. In addition, in the experiment on MV4; 11 cells (Homo sapiens), the 50% inhibitory concentration (IC50) was < 1 µM.

With `N#Cc1cccc(CN2CCc3c(c(=O)n(Cc4ccccc4)c4ncccc34)C2)c1` [Compound I-82, 6-benzyl-3-(3-cyanobenzyl)-2,3,4,6-tetrahydropyrido[3,4-c][1,8]naphthyridine-5-(1H)-one], the EC50 on hClpP was < 1 µM. Also, the IC50 in the experiment on MV4; 11 cells (Homo sapiens) was < 1 µM.

On to `N#Cc1cccc(CN2CCc3c(c(=O)n(Cc4ccc(C(F)(F)F)cc4)c4ncccc34)C2)c1` [Compound I-83, 6-(4-trifluoromethylbenzyl)-3-(3-cyanobenzyl)-2,3,4,6-tetrahydropyrido[3,4-c][1,8]naphthyridine-5-(1H)-one], for which the EC50 on hClpP was < 1 µM. For the same compound, the IC50 in the experiment with MV4; 11 cells (Homo sapiens) was < 1 µM.

Turning to `N#Cc1cccc(CN2CCc3c(c(=O)n(Cc4ccc(F)cc4)c4ncccc34)C2)c1` [Compound I-84, 6-(4-fluorobenzyl)-3-(3-cyanobenzyl)-2,3,4,6-tetrahydropyrido[3,4-c][1,8]naphthyridine-5-(1H)-one], the 50% effective concentration (EC50) at hClpP was < 1 µM. In the experiment on MV4; 11 cells (Homo sapiens), the IC50 is < 1 µM.

In the case of `N#Cc1cccc(CN2CCc3c(c(=O)n(Cc4ccc(Cl)cc4)c4ncccc34)C2)c1` [Compound I-85, 6-(4-chlorobenzyl)-3-(3-cyanobenzyl)-2,3,4,6-tetrahydropyrido[3,4-c][1,8]naphthyridine-5-(1H)-one], on hClpP, the EC50 is < 1 µM. For the same compound, in the experiment with MV4; 11 cells (Homo sapiens), the IC50 was < 1 µM.

As for `N#Cc1cccc(CN2CCc3c(c(=O)n(Cc4ccc(Br)cc4)c4ncccc34)C2)c1` [Compound I-86, 6-(4-bromobenzyl)-3-(3-cyanobenzyl)-2,3,4,6-tetrahydropyrido[3,4-c][1,8]naphthyridine-5-(1H)-one], the EC50 on hClpP was < 1 µM. Also, the IC50 in the experiment on MV4; 11 cells (Homo sapiens) was < 1 µM.

Consider `COc1ccc(Cn2c(=O)c3c(c4cccnc42)CCN(Cc2cccc(C#N)c2)C3)cc1` [Compound I-87, 6-(4-methoxybenzyl)-3-(3-cyanobenzyl)-2,3,4,6-tetrahydropyrido[3,4-c][1,8]naphthyridine-5-(1H)-one], for which the EC50 on hClpP was < 1 µM. Further, the IC50 in the experiment on MV4; 11 cells (Homo sapiens) is < 1 µM.
